Tested on: Human immunodeficiency virus 1
Assay: microbe, parasite or virus in culture
Conditions: Human immunodeficiency virus 1, HXB-2 subtype A, U87.CD4.CXCR4, 72 h
`NC[C@@H](NC(=O)c1ccc(-c2ccc(C(F)(F)F)cc2)[nH]1)c1ncc(CO)s1` showed an IC50 of 0.11 µM.

Tested on: not listed separately
Assay: Selectivity index, ratio of CC50 for HIV1 human TZM-bl cells to EC50 for HIV1 ENV pseudotype from the lab-adapted CXCR4-tropic HIV-1 HXB-2 infected in human TZM-bl cells
Assay type: toxicity, cell-based
Conditions: not given
In the case of `NC[C@H](NC(=O)c1ccc(-c2ccc(C(F)(F)F)cc2)[nH]1)c1ncc(COCC(O)CO)s1` (some centres undefined), the “Selectivity Index” value is reported as “Not Determined(Insoluble)”.
With `N#Cc1ccc(-c2ccc(C(=O)N[C@@H](CN)c3nc(CO)cs3)[nH]2)cc1` the “Selectivity Index” value was “Not Determined(Insoluble)”.
With `NC[C@@H](NC(=O)c1ccc(-c2ccc(C(F)(F)F)c(F)c2)[nH]1)c1nc(C(=O)O)cs1` the “Selectivity Index” value was “Not Determined(Insoluble)”.
In the case of `N#Cc1ccc(-c2ccc(C(=O)N[C@H](CN)c3nc(CO)cs3)[nH]2)cc1`, the “Selectivity Index” value is reported as “Not Determined(Insoluble)”.
In the case of `NC[C@H](NC(=O)c1ccc(-c2ccc(C(F)(F)F)c(F)c2)[nH]1)c1nc(C(=O)O)cs1`, the “Selectivity Index” value is reported as “Not Determined(Insoluble)”.

Same assay, conditions: TZM-bl cells, read-out: Selectivity Index
`Cc1cc(-c2ccc(C(F)(F)F)c(F)c2)[nH]c1C(=O)N[C@@H](CN)c1ncc(CO)s1` showed a selectivity ratio of 49.5.
With `NC[C@@H](NC(=O)c1ccc(-c2cc(F)c(Cl)c(F)c2)[nH]1)c1nc(CCO)cs1` the selectivity ratio was 33.5.
In the case of `NC[C@@H](NC(=O)c1ccc(-c2ccc(C(F)(F)F)c(F)c2)[nH]1)c1nc(C(O)CO)cs1` (some centres undefined), the selectivity ratio is reported as 23.4.
`NC[C@@H](NC(=O)c1ccc(-c2ccc(C(F)(F)F)cc2C(F)(F)F)[nH]1)c1nc(CO)cs1` gave a selectivity ratio of 5.9.
With `NC[C@@H](NC(=O)c1ccc(-c2ccc(C(F)(F)F)c(F)c2)[nH]1)c1nc(C(N)=O)cs1` the selectivity ratio was 11.3.
`CC(CN)(NC(=O)c1ccc(-c2ccc(C(F)(F)F)c(F)c2)[nH]1)c1nc(CO)cs1` (racemic) showed a selectivity ratio of 28.
Work on `NC[C@@H](NC(=O)c1ccc(-c2ccc(C(F)(F)F)c(F)c2)[nH]1)c1nc(CCO)cs1` yielded a selectivity ratio of 47.4.
Molecule `CC(CN)(NC(=O)c1ccc(-c2cc(F)c(Cl)c(F)c2)[nH]1)c1nc(CO)cs1` (racemic) has a selectivity ratio of 18.3.
Molecule `COC(=O)c1csc([C@H](CN)NC(=O)c2ccc(-c3ccc(C(F)(F)F)c(F)c3)[nH]2)n1` has a selectivity ratio of 14.3.
Molecule `NC[C@@H](NC(=O)c1ccc(-c2ccc(C(F)(F)F)cc2F)[nH]1)c1nc(CO)cs1` has a selectivity ratio of 43.9.
`NC[C@H](NC(=O)c1ccc(-c2ccc(C(F)(F)F)cc2C(F)(F)F)[nH]1)c1nc(CO)cs1` showed a selectivity ratio of 7.9.
Work on `NC[C@H](NC(=O)c1ccc(-c2ccc(C(F)(F)F)c(F)c2)[nH]1)c1nc(C(O)CO)cs1` (some centres undefined) yielded a selectivity ratio of 132.
With `NC[C@H](NC(=O)c1ccc(-c2ccc(C(F)(F)F)c(F)c2)[nH]1)c1nc(C(N)=O)cs1` the selectivity ratio was 34.2.

Tested on: Human immunodeficiency virus 1
Assay: Antiviral activity against HIV1 Env pseudotype from the lab-adapted CXCR4-tropic HIV-1 HXB-2 infected in human TZM-bl cells preincubated for 30 min followed by viral infection and measured after 3 days by luciferase-based single-cycle infection assay
Assay type: functional, organism-based
Conditions: Human immunodeficiency virus 1, HXB-2, TZM-bl; read-out: IC50
`NC[C@H](NC(=O)c1ccc(-c2ccc(C(F)(F)F)cc2)[nH]1)c1ncc(COCC(O)CO)s1` (some centres undefined) showed an IC50 of over 13 µM.
In the case of `Cc1cc(-c2ccc(C(F)(F)F)c(F)c2)[nH]c1C(=O)N[C@@H](CN)c1ncc(CO)s1`, the IC50 is reported as 0.15 µM.
Work on `NC[C@@H](NC(=O)c1ccc(-c2cc(F)c(Cl)c(F)c2)[nH]1)c1nc(CCO)cs1` yielded an IC50 of 0.98 µM.
Molecule `NC[C@@H](NC(=O)c1ccc(-c2ccc(C(F)(F)F)c(F)c2)[nH]1)c1nc(C(O)CO)cs1` (some centres undefined) has an IC50 of 2.4 µM.
With `NC[C@@H](NC(=O)c1ccc(-c2ccc(C(F)(F)F)cc2C(F)(F)F)[nH]1)c1nc(CO)cs1` the IC50 was 6.3 µM.
Molecule `NC[C@@H](NC(=O)c1ccc(-c2ccc(C(F)(F)F)c(F)c2)[nH]1)c1nc(C(N)=O)cs1` has an IC50 of 2.3 µM.
For `CC(CN)(NC(=O)c1ccc(-c2ccc(C(F)(F)F)c(F)c2)[nH]1)c1nc(CO)cs1` (racemic), the IC50 was 1.6 µM.
Molecule `NC[C@@H](NC(=O)c1ccc(-c2ccc(C(F)(F)F)c(F)c2)[nH]1)c1nc(CCO)cs1` has an IC50 of 0.51 µM.
`CC(CN)(NC(=O)c1ccc(-c2cc(F)c(Cl)c(F)c2)[nH]1)c1nc(CO)cs1` (racemic) gave an IC50 of 2.6 µM.
Molecule `COC(=O)c1csc([C@H](CN)NC(=O)c2ccc(-c3ccc(C(F)(F)F)c(F)c3)[nH]2)n1` has an IC50 of 2.9 µM.
`N#Cc1ccc(-c2ccc(C(=O)N[C@@H](CN)c3nc(CO)cs3)[nH]2)cc1` showed an IC50 of over 16 µM.
With `NC[C@@H](NC(=O)c1ccc(-c2ccc(C(F)(F)F)cc2F)[nH]1)c1nc(CO)cs1` the IC50 was 0.61 µM.
With `NC[C@H](NC(=O)c1ccc(-c2ccc(C(F)(F)F)cc2C(F)(F)F)[nH]1)c1nc(CO)cs1` the IC50 was 4.2 µM.
With `NC[C@H](NC(=O)c1ccc(-c2ccc(C(F)(F)F)c(F)c2)[nH]1)c1nc(C(O)CO)cs1` (some centres undefined) the IC50 was 0.55 µM.
With `NC[C@H](NC(=O)c1ccc(-c2ccc(C(F)(F)F)c(F)c2)[nH]1)c1nc(C(N)=O)cs1` the IC50 was over 10 µM.
For `N#Cc1ccc(-c2ccc(C(=O)N[C@H](CN)c3nc(CO)cs3)[nH]2)cc1`, the IC50 was over 16 µM.

Same assay, conditions: tzm-bl
For `NC[C@@H](NC(=O)c1ccc(-c2ccc(C(F)(F)F)c(F)c2)[nH]1)c1nc(C(=O)O)cs1`, the IC50 was “Not Determined(Insoluble)”.
In the case of `NC[C@H](NC(=O)c1ccc(-c2ccc(C(F)(F)F)c(F)c2)[nH]1)c1nc(C(=O)O)cs1`, the IC50 is reported as “Not Determined(Insoluble)”.

Tested on: TZM
Assay: Cytotoxicity against human TZM-bl cells assessed as reduction in cell viability incubated for 3 days by MTS assay
Assay type: toxicity, cell-based
Conditions: tzm, 72 h, time 3 day
In the case of `NC[C@@H](NC(=O)c1ccc(-c2ccc(C(F)(F)F)c(F)c2)[nH]1)c1nc(C(=O)O)cs1`, the CC50 is reported as “Not Determined(Insoluble)”.
With `NC[C@H](NC(=O)c1ccc(-c2ccc(C(F)(F)F)c(F)c2)[nH]1)c1nc(C(=O)O)cs1` the CC50 was “Not Determined(Insoluble)”.

Same assay, conditions: tzm, 72 h, time 3 day, read-out: CC50
Molecule `NC[C@H](NC(=O)c1ccc(-c2ccc(C(F)(F)F)cc2)[nH]1)c1ncc(COCC(O)CO)s1` (some centres undefined) has a CC50 of over 61.9 µM.
`Cc1cc(-c2ccc(C(F)(F)F)c(F)c2)[nH]c1C(=O)N[C@@H](CN)c1ncc(CO)s1` showed a CC50 of 10.3 µM.
`NC[C@@H](NC(=O)c1ccc(-c2cc(F)c(Cl)c(F)c2)[nH]1)c1nc(CCO)cs1` gave a CC50 of 32.8 µM.
`NC[C@@H](NC(=O)c1ccc(-c2ccc(C(F)(F)F)c(F)c2)[nH]1)c1nc(C(O)CO)cs1` (some centres undefined) showed a CC50 of 56.3 µM.
With `NC[C@@H](NC(=O)c1ccc(-c2ccc(C(F)(F)F)cc2C(F)(F)F)[nH]1)c1nc(CO)cs1` the CC50 was 37.6 µM.
With `NC[C@@H](NC(=O)c1ccc(-c2ccc(C(F)(F)F)c(F)c2)[nH]1)c1nc(C(N)=O)cs1` the CC50 was 25.9 µM.
`CC(CN)(NC(=O)c1ccc(-c2ccc(C(F)(F)F)c(F)c2)[nH]1)c1nc(CO)cs1` (racemic) showed a CC50 of 45.3 µM.
With `NC[C@@H](NC(=O)c1ccc(-c2ccc(C(F)(F)F)c(F)c2)[nH]1)c1nc(CCO)cs1` the CC50 was 24.2 µM.
With `CC(CN)(NC(=O)c1ccc(-c2cc(F)c(Cl)c(F)c2)[nH]1)c1nc(CO)cs1` (racemic) the CC50 was 47.7 µM.
For `COC(=O)c1csc([C@H](CN)NC(=O)c2ccc(-c3ccc(C(F)(F)F)c(F)c3)[nH]2)n1`, the CC50 was 41.6 µM.
In the case of `NC[C@@H](NC(=O)c1ccc(-c2ccc(C(F)(F)F)cc2F)[nH]1)c1nc(CO)cs1`, the CC50 is reported as 26.8 µM.
Work on `NC[C@H](NC(=O)c1ccc(-c2ccc(C(F)(F)F)cc2C(F)(F)F)[nH]1)c1nc(CO)cs1` yielded a CC50 of 33.4 µM.
With `NC[C@H](NC(=O)c1ccc(-c2ccc(C(F)(F)F)c(F)c2)[nH]1)c1nc(C(O)CO)cs1` (some centres undefined) the CC50 was 72.4 µM.
Work on `NC[C@H](NC(=O)c1ccc(-c2ccc(C(F)(F)F)c(F)c2)[nH]1)c1nc(C(N)=O)cs1` yielded a CC50 of over 52 µM.
For `N#Cc1ccc(-c2ccc(C(=O)N[C@H](CN)c3nc(CO)cs3)[nH]2)cc1`, the CC50 was over 82 µM.

Source: ChEMBL document CHEMBL5230138, “Design, synthesis, and antiviral activity of a series of CD4-mimetic small-molecule HIV-1 entry inhibitors” (Bioorg Med Chem, 2021)
